For the assay, the system named is primary macrophages. Briefly: Primary macrophage migration in DUNN chamber. The format is cell-based, human. The note with it: 10 nM peptide added to 10 nM fMLF gradient, 6 hours. The procedure: The ability of [SRSRY] peptide to affect THP-1 cell migration was analyzed in Boyden chambers using 10 nM fMLF or 10 nM SRSRY as chemoattractants. […] Inhibitory effect of [SRSRY] is dose-dependent, it starts in the high fM range, it seems to level off in the μM range and reaches an overall 50% reduction at 10 pM (Fig 4B). […] The mechanisms by which monocytes move when subjected to a chemoattractant gradient, involve changes in cytoskeletal organization, which provide both protrusive and contractile forces necessary for cell migration. […] A total of 100 cells/sample that translocated to the area corresponding to the ring separating the inner and outer chambers were counted and their cytoskeletal organization examined with a fluorescence-inverted microscope. […] After 6 hours incubation, a total of 100 cells/sample that translocated to the area corresponding to the ring separating the inner and outer chambers were counted. […] Data are expressed as the means ± SD of three independent experiments, performed in duplicate. *Statistical significance against None with p<0.001. […] The extent of cell migration was expressed as a percentage of the net fMLF-dependent cell migration, considered as 100%. Data are expressed as the means ± SD of three independent experiments, performed in duplicate. […]

The structures appear in SMILES notation. Peptide text beside a SMILES is read from it.

`N=C(N)NCCC[C@@H]1NC(=O)[C@H](CO)NC(=O)[C@H](Cc2ccc(O)cc2)NC(=O)[C@H](CCCNC(=N)N)NC(=O)[C@H](CO)NC1=O` [[SRSRY], [Ser-Arg-Ser-Arg-Tyr]] (cyclo(RSRYS)): the “effect on fMLF-directed migration of primary macrophages” value is on record as “reduced migration of primary macrophages to the basal level”.

The values are drawn from publication PMC4418665, “Cyclization of the Urokinase Receptor-Derived Ser-Arg-Ser-Arg-Tyr Peptide Generates a Potent Inhibitor of Trans-Endothelial Migration of Monocytes” (PLoS ONE, 2015).
